This note sets out measurements from patent US12448388B2, “PRMT5 inhibitors and uses thereof” (Gilead Sciences, Inc., priority 2023, dated 2025).

What is called CC50 is the concentration giving 50% cytotoxicity.

This test concerns HCT116 MTAP-deleted cell lines. Briefly: Cell viability assay (CellTiter-Glo, 7 days), HCT116 MTAP-deleted. It counts as cell-based. Particulars: Homo sapiens, HCT-116; cell viability assay, HCT116 MTAP-deleted; class symbols; read-out: CC50. The method, boiled down: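 First, compounds are serially diluted in DMSO and dispensed into plates, which are frozen until seeding. Next, cells are added and incubated 7 days at 37 °C, 5% CO2, 90% humidity. Finally, CellTiter-Glo reagent is added and luminescence is measured to derive CC50.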
Background: ATP-based viability assays read luminescence as a measure of living cells.

Some results are limits rather than exact numbers.

For `CN(C(=O)c1cc2c(cn1)nc(N)c1cncn12)[C@@H]1COc2cc(C34CC(C3)C4)ccc21` [Ff-449, 7-amino-N-[(3S)-6-(1-bicyclo[1.1.1]pentanyl)-2,3-dihydrobenzofuran-3-yl]-N-methyl-2,4,8,11-tetrazatricyclo[7.4.0.02,6]trideca-1(9),3,5,7,10,12-hexaene-12-carboxamide], the CC50 was < 100 nM. To `Cc1ncn2c1c(N)nc1cc(F)c(C(=O)N(C)[C@@H]3COc4cc([C@@H]5C[C@H]5C#N)c(F)cc43)cc12` [Ff-450, Trans-4-amino-N-[(3S)-6-(2-cyanocyclopropyl)-5-fluoro-2,3-dihydrobenzofuran-3-yl]-7-fluoro-N,3-dimethyl-imidazo[1,5-a]quinoxaline-8-carboxamide] belongs < 100 nM; to `CN(C(=O)c1cc2c(cn1)nc(N)c1cncn12)[C@@H]1COc2cc(C34CC(C(F)F)(C3)C4)ccc21` [Ff-451, (S)-4-amino-N-(6-(3-(difluoromethyl)bicyclo[1.1.1]pentan-1-yl)-2,3-dihydrobenzofuran-3-yl)-N-methylimidazo[1,5-a]pyrido[3,4-e]pyrazine-8-carboxamide], < 100 nM; to `Cc1ncn2c1c(N)nc1cnc(C(=O)N(C)[C@@H]3COc4cc(C56CC(C5)C6)ccc43)cc12` [Ff-452, (S)-4-amino-N-(6-(bicyclo[1.1.1]pentan-1-yl)-2,3-dihydrobenzofuran-3-yl)-N,3-dimethylimidazo[1,5-a]pyrido[3,4-e]pyrazine-8-carboxamide], < 100 nM.

As for `CN(C(=O)c1cc2c(cc1F)nc(N)c1cncn12)[C@@H]1COc2cc(C34CC(F)(C3)C4)ccc21` [Ff-453, 4-amino-7-fluoro-N-[(3S)-6-(3-fluoro-1-bicyclo[1.1.1]pentanyl)-2,3-dihydrobenzofuran-3-yl]-N-methyl-imidazo[1,5-a]quinoxaline-8-carboxamide], the CC50 was < 100 nM.

Consider `CN(Cc1ccn(-c2ccccc2)n1)C(=O)c1cc2c(cc1F)nc(N)c1cncn12` [Ff-454, 4-amino-7-fluoro-N-methyl-N-((1-phenyl-1H-pyrazol-3-yl)methyl)imidazo[1,5-a]quinoxaline-8-carboxamide], for which the CC50 is 100 to 1000 nM. As for `CN(C(=O)c1cc2c(cc1F)nc(N)c1cncn12)[C@@H]1COc2c(Br)cccc21` [Ff-455, (S)-4-amino-N-(7-bromo-2,3-dihydrobenzofuran-3-yl)-7-fluoro-N-methylimidazo[1,5-a]quinoxaline-8-carboxamide], the figure is 100 to 1000 nM; as for `CN(C(=O)c1cc2c(cc1F)nc(N)c1cncn12)C1CSc2ccccc21` (centres unmarked) [Ff-456, 4-amino-N-(2,3-dihydrobenzo[b]thiophen-3-yl)-7-fluoro-N-methylimidazo[1,5-a]quinoxaline-8-carboxamide], 100 to 1000 nM; as for `CN(C(=O)c1cc2c(cc1F)nc(N)c1cncn12)[C@@H]1COc2ccc(Br)cc21` [Ff-457, (S)-4-amino-N-(5-bromo-2,3-dihydrobenzofuran-3-yl)-7-fluoro-N-methylimidazo[1,5-a]quinoxaline-8-carboxamide], < 100 nM. As for `CN(C(=O)c1cc2c(cc1F)nc(N)c1cncn12)C1COc2ccc(C(F)(F)F)cc21` (centres unmarked) [Ff-458, 4-amino-7-fluoro-N-methyl-N-(5-(trifluoromethyl)-2,3-dihydrobenzofuran-3-yl)imidazo[1,5-a]quinoxaline-8-carboxamide], the figure is < 100 nM; as for `CN(C(=O)c1cc2c(cc1F)nc(N)c1cncn12)C1COc2cc3c(cc21)CCC3` (centres unmarked) [Ff-459, 4-amino-7-fluoro-N-methyl-N-(3,5,6,7-tetrahydro-2H-indeno[5,6-b]furan-3-yl)imidazo[1,5-a]quinoxaline-8-carboxamide], < 100 nM. To `Cc1cc2c(cc1Br)[C@H](N(C)C(=O)c1cc3c(cc1F)nc(N)c1cncn13)CO2` [Ff-460, (S)-4-amino-N-(5-bromo-6-methyl-2,3-dihydrobenzofuran-3-yl)-7-fluoro-N-methylimidazo[1,5-a]quinoxaline-8-carboxamide] belongs < 100 nM. Consider `Nc1nc2cc(F)c(C(=O)N3CCO[C@@H]4Cc5cc(Cl)ccc5[C@@H]43)cc2n2cncc12` [Ff-461, (4-amino-7-fluoroimidazo[1,5-a]quinoxalin-8-yl)((4aS,9aR)-7-chloro-2,3,9,9a-tetrahydroindeno[2,1-b][1,4]oxazin-4(4aH)-yl)methanone], for which the CC50 was < 100 nM.

Consider `CN(C(=O)c1cc2c(cc1F)nc(N)c1cncn12)[C@@H]1COc2cc(C3CC(C#N)C3)ccc21` (stereo partly drawn) [Ff-465, (S)-4-amino-N-(6-(3-cyanocyclobutyl)-2,3-dihydrobenzofuran-3-yl)-7-fluoro-N-methylimidazo[1,5-a]quinoxaline-8-carboxamide], for which the CC50 is < 100 nM. For `Cc1ncc2c(N)nc3cnc(C(=O)N(C)[C@@H]4COc5cc(C67CC(C6)C7)ccc54)cc3n12` [Ff-466, (S)-4-amino-N-(6-(bicyclo[1.1.1]pentan-1-yl)-2,3-dihydrobenzofuran-3-yl)-N,1-dimethylimidazo[1,5-a]pyrido[3,4-e]pyrazine-8-carboxamide], the CC50 was < 100 nM.

As for `CC1(N(Cc2ccc(C(F)(F)F)cn2)C(=O)c2cc3c(cc2F)nc(N)c2cncn23)CC1` [Ff-468, 4-amino-7-fluoro-N-(1-methylcyclopropyl)-N-((5-(trifluoromethyl)pyridin-2-yl)methyl)imidazo[1,5-a]quinoxaline-8-carboxamide], the cytotoxic concentration (CC50) was < 100 nM. To `CN(C(=O)c1cc2c(cc1F)nc(N)c1cncn12)[C@@H]1COc2cc(-c3cnn(-c4ccccc4)c3)ccc21` [Ff-472, (S)-4-amino-7-fluoro-N-methyl-N-(6-(1-phenyl-1H-pyrazol-4-yl)-2,3-dihydrobenzofuran-3-yl)imidazo[1,5-a]quinoxaline-8-carboxamide] belongs < 100 nM; to `CN(C(=O)c1cc2c(cc1F)nc(N)c1cncn12)[C@@H]1COc2cc(C3CC3(C)C)ccc21` (stereo partly drawn) [Ff-475, 4-amino-N-((3S)-6-(2,2-dimethylcyclopropyl)-2,3-dihydrobenzofuran-3-yl)-7-fluoro-N-methylimidazo[1,5-a]quinoxaline-8-carboxamide], < 100 nM; to `CN(C(=O)c1cc2c(cc1F)nc(N)c1cncn12)[C@@H]1COc2cc(C3CC34CCC4)ccc21` (stereo partly drawn) [Ff-476, 4-amino-7-fluoro-N-methyl-N-((3S)-6-(spiro[2.3]hexan-1-yl)-2,3-dihydrobenzofuran-3-yl)imidazo[1,5-a]quinoxaline-8-carboxamide], 100 to 1000 nM.

On to `CN(C(=O)c1cc2c(cc1F)nc(N)c1cncn12)[C@@H]1COc2cc([C@@H]3C[C@H]3c3ccn(C(F)F)n3)ccc21` [Ff-477, 4-amino-N—((S)-6-((1R,2R)-2-(1-(difluoromethyl)-1H-pyrazol-3-yl)cyclopropyl)-2,3-dihydrobenzofuran-3-yl)-7-fluoro-N-methylimidazo[1,5-a]quinoxaline-8-carboxamide], for which the CC50 was < 100 nM. In the case of `C=C(C)c1ccc2c(c1)OC[C@H]2N(C)C(=O)c1cc2c(cc1F)nc(N)c1cncn12` [Ff-478, (S)-4-amino-7-fluoro-N-methyl-N-(6-(prop-1-en-2-yl)-2,3-dihydrobenzofuran-3-yl)imidazo[1,5-a]quinoxaline-8-carboxamide], the CC50 was < 100 nM. Take `CC(C)c1ccc2c(c1)OC[C@H]2N(C)C(=O)c1cc2c(cc1F)nc(N)c1cncn12` [Ff-479, (S)-4-amino-7-fluoro-N-(6-isopropyl-2,3-dihydrobenzofuran-3-yl)-N-methylimidazo[1,5-a]quinoxaline-8-carboxamide]: the CC50 is < 100 nM. Consider `CN(C(=O)c1cc2c(cc1F)nc(N)c1cncn12)[C@@H]1COc2cc(C3=CCOC3)ccc21` [Ff-483, (S)-4-amino-N-(6-(2,5-dihydrofuran-3-yl)-2,3-dihydrobenzofuran-3-yl)-7-fluoro-N-methylimidazo[1,5-a]quinoxaline-8-carboxamide], for which the CC50 was < 100 nM. To `CN(C(=O)c1cc2c(cc1F)nc(N)c1cncn12)[C@@H]1COc2cc(C3=CCOC3(C)C)ccc21` [Ff-485, (S)-4-amino-N-(6-(2,2-dimethyl-2,5-dihydrofuran-3-yl)-2,3-dihydrobenzofuran-3-yl)-7-fluoro-N-methylimidazo[1,5-a]quinoxaline-8-carboxamide] belongs < 100 nM; to `CN(C(=O)c1cc2c(cc1F)nc(N)c1cncn12)[C@@H]1COc2cc(C3CCOC3(C)C)ccc21` (stereo partly drawn) [Ff-486, 4-amino-N-((3S)-6-(2,2-dimethyltetrahydrofuran-3-yl)-2,3-dihydrobenzofuran-3-yl)-7-fluoro-N-methylimidazo[1,5-a]quinoxaline-8-carboxamide], < 100 nM; to `Nc1nc2cc(Cl)c(C(=O)N3CC[C@@H]4C[C@H]3c3ccc(Cl)cc34)cc2n2cncc12` [Ff-487, (4-amino-7-chloroimidazo[1,5-a]quinoxalin-8-yl)((1S,5R)-7-chloro-1,3,4,5-tetrahydro-2H-1,5-methanobenzo[c]azepin-2-yl)methanone], 100 to 1000 nM.

As for `Nc1nc2cc(Cl)c(C(=O)N3CC[C@H]4C[C@@H]3c3c(F)cc(Cl)cc34)cc2n2cncc12` [Ff-488, (4-amino-7-chloroimidazo[1,5-a]quinoxalin-8-yl)((1R,5S)-7-chloro-9-fluoro-1,3,4,5-tetrahydro-2H-1,5-methanobenzo[c]azepin-2-yl)methanone], the CC50 lay in the range of 100 to 1000 nM. To `Nc1nc2cc(Cl)c(C(=O)N3CC[C@H]4C[C@@H]3c3ccc(Cl)c(F)c34)cc2n2cncc12` [Ff-489, (4-amino-7-chloroimidazo[1,5-a]quinoxalin-8-yl)((1R,5S)-7-chloro-6-fluoro-1,3,4,5-tetrahydro-2H-1,5-methanobenzo[c]azepin-2-yl)methanone] belongs 100 to 1000 nM. As for `CN(C(=O)c1cc2c(cc1C#N)nc(N)c1cncn12)[C@@H]1COc2cc(C(F)(F)F)ccc21` [Ff-490, (S)-4-amino-7-cyano-N-methyl-N-(6-(trifluoromethyl)-2,3-dihydrobenzofuran-3-yl)imidazo[1,5-a]quinoxaline-8-carboxamide], the figure is < 100 nM.
